# Reference: patent publication USRE35886E, “Phosphonic acid derivatives and use thereof” (Takeda Chemical Industries, Ltd., priority 1991, dated 1998)
# pIC50: −log10 of the molar value. Where a SMILES comes first, the peptide text is derived from it. Where no end group is shown, it is not given here. [ ]: non-standard residue; d: D form. The star is where a group is joined. Sta = CC(C)C[C@H](N)[C@@H](O)CC(=O)O; Isovaleryl = CC(C)CC(=O)*
# Biological target: T1, Endothelin-Converting Enzyme (Sus scrofa, UniProt A0A8W4FBH0)
# T1 construct: 1.0% Triton X-100 was added to solubilize enzyme activity; from tissue; host or cells: pig lung, solubilised 100,000×G membrane fraction
# T1 sequence (A0A8W4FBH0 1-751): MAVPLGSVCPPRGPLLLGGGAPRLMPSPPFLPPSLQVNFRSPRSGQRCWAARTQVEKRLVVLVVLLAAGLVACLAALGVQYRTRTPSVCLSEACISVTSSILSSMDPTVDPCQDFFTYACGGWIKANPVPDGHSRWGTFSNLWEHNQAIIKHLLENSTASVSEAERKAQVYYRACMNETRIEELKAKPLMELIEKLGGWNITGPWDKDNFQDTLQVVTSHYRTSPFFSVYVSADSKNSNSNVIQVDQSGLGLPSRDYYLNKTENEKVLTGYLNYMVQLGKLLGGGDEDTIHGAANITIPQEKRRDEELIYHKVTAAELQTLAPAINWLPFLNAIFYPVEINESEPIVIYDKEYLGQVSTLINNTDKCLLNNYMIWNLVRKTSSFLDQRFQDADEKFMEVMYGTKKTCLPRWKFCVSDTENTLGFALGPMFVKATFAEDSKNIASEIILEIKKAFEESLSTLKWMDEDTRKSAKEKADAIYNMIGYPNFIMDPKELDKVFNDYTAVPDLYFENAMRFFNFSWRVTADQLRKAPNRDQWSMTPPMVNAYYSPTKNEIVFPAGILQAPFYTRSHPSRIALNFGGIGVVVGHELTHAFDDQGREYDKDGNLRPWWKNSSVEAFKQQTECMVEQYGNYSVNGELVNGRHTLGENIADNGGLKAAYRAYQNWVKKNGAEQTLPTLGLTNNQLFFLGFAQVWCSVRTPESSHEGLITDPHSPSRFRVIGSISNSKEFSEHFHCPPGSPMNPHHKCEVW
# Assay: Measurement of endothelin-converting enzyme inhibiting activity of phosphonic acid derivatives (pig big endothelin I (1-39) substrate, endothelin I sandwich enzyme immunoassay)
# Format: biochemical
# Settings: 37° C., 1 hour, pH 7.2, pig lung solubilized membrane fraction
# Procedure: Measurement of Endothelin-Converting Enzyme Inhibiting Activity of Phosphonic Acid Amide Derivatives
# In 1.5-ml centrifugal tube (BIO-BIK), 80 μl of 50 mM bis-Trispropane-hydrochloric acid buffer (pH 7.2) supplemented with 1.0 mg/ml bovine serum albumin, 0.1M sodium chloride, 1.0 mM phenylmethanesulfonyl fluoride (PMSF, Wako Pure Cnemical Industries), 1.0 μg/ml leupeptin (Peptide Institute Inc.), 1.0 μg/ml chymostatin (Peptide Institute Inc.), 1.0 μg/ml pepstatin A (Peptide Institute Inc.), 1.0 μM E-64 (Peptide Institute Inc.), 1.0 μm thiorphan (Sigma) and 1.0 μM angiotensin-converting enzyme inhibitor [CV-5975, Inada et al., Japanese Journal of Pharmacology, 47, 135-141 (1988)], 5 μl of a sample solution to be tested (an aqueous solution or an aqueous solution containing 2% dimethyl sulfoxide) or 5 μl of distilled water for the control plot, and 10 μl of an endothelin-converting enzyme sample prepared as described in the following reference example were placed. After standing at 37° C. for 30 minutes, 5 μl of a substrate solution [physiological phosphate buffer (PBS, containing 0.2 g of potassium chloride, 0.2 g of potassium dihydrogenphosphate, 8.0 g of sodium chloride and 1.14 g of disodium hydrogenphosphate in 1,000 ml of distilled water) supplemented with 1.0×10^-6 M pig big endothelin I (1-39) (Peptide Institute Inc.) and 1.0 mg/ml bovine serum albumin] was added thereto to initiate enzyme reaction. After reaction at 37° C. for 1 hour, the reaction mixture was boiled in boiling water for 5 minutes, thereby terminating the reaction: The resulting insoluble material was removed by centrifugation, and endothelin I (1-21) produced by the enzyme reaction contained in 10 μl of the supernatant was quantified by the endothelin I-specific sandwich enzyme immunoassay method already established [Suzuki et al., J. Immuno. Meth., 188, 245-250 (1989)], and compared with the amount of endothelin produced in the control plot to evaluate the enzyme inhibiting activity.
# As endothelin-converting enzymes existing in organisms, two kinds of metalloenzymes different in enzymological properties are generally known. One exits in the cytoplasms, and the other is membrane-bound. The latter is characterized by that it is inhibited with phosphoramidon known as an inhibitor for metalloproteases [Matsumura et al., FEBS Lett., 272, 166-170 (1990)]. The endothelin-converting enzyme in the present invention means the membrane-bound enzyme of these two kinds of enzymes.
# (§1) About 500 g of the pig lung (of one pig) was sliced and disrupted in 2.0 liter of PBS supplemented with 0.05% sodium azide, 1.0 mM dithiothreitol, 1.0 mM PMSF, 1.0 μg/ml leupeptin, 1.0 μg/ml chymostatin, 1.0 μg/ml pepstatin A and 1.0 μM E-64, and then homogenized (1 minute×5 times) by a Polytron mixer ([…]). The centrifuged supernatant (240×G, 5 minutes) was further centrifuged at 10,000×G for 15 minutes, and the resulting supernatant was subjected to ultracentrifuge (100,000×G, 90 minutes) to obtain membrane fraction as a precipitate. To this precipitate, 1.0% Triton X-100 was added to solubilize enzyme activity. […] This was diluted to 2.0 mg of protein/ml to use for assaying the activity of enzyme inhibitors.
row,Molecule,pIC50
1,CC(C)C[C@H](NP(=O)(O)Cc1cccc2ccccc12)C(=O)N[C@@H](Cc1c[nH]c2ccccc12)C(=O)O [N-(1-Naphthylmethylphosphonyl)-Leu-Trp.2Na],6.70
2,CC(C)C[C@H](NP(=O)(O)Cc1ccc2ccccc2c1)C(=O)N[C@@H](Cc1c[nH]c2ccccc12)C(=O)O [N-(2-Naphthylmethylphosphonyl)-Leu-Trp.2Na],6.00
3,"CC(C)CCP(=O)(O)N[C@@H](CC(C)C)C(=O)N[C@@H](Cc1c[nH]c2ccccc12)C(=O)O [N-(Isoamylphosphonyl)-Leu--Trp.2Na, N-(Isoamylphosphonyl)-Leu-Trp.2Na]",6.15
4,"O=C(O)[C@H](Cc1c[nH]c2ccccc12)NC(=O)[C@H](CC1CCCCC1)NP(=O)(O)CCc1ccccc1 [N-(Phenethylphosphonyl)-Cha--Trp.2Na, N-(Phenethylphosphonyl)-Cha-Trp.2Na]",6.00
5,"CC[C@H](C)[C@H](NP(=O)(O)CCc1ccccc1)C(=O)N[C@@H](Cc1c[nH]c2ccccc12)C(=O)O [N-(Phenethylphosphonyl)-Ile--Trp.2Na, N-(Phenethylphosphonyl)-Ile-Trp.2Na]",5.92
6,"CC(C)C[C@H](NP(=O)(O)CCc1ccccc1)C(=O)N[C@@H](Cc1c[nH]c2ccccc12)C(=O)O [N-(Phenethylphosphonyl)-Leu--Trp.2Na, N-(Phenethylphosphonyl)-Leu-Trp.2Na]",6.70

# Second part, the molecule after the results:
row,pIC50,Molecule
1,5.32,"CC(C)C[C@H](NC(=O)[C@H](CC(C)C)NP(=O)(O)CCc1ccccc1)C(=O)O [N-(Phenethylphosphonyl)-Leu--Leu.2Na, N-(Phenethylphosphonyl)-Leu-Leu.2Na]"
2,5.24,"CC(C)C[C@H](NP(=O)(O)CCc1ccccc1)C(=O)N[C@@H](Cc1ccccc1)C(=O)O [N-(Phenethylphosphonyl)-Leu--Phe.2Na, N-(Phenethylphosphonyl)-Leu-Phe.2Na]"
3,5.85,"CCCC[C@H](NP(=O)(O)CCc1ccccc1)C(=O)N[C@@H](Cc1c[nH]c2ccccc12)C(=O)O [N-(Phenethylphosphonyl)-Nle--Trp.2Na, N-(Phenethylphosphonyl)-Nle-Trp.2Na]"
4,6.30,"O=C(O)[C@H](Cc1c[nH]c2ccccc12)NC(=O)[C@H](Cc1ccccc1)NP(=O)(O)CCc1ccccc1 [N-(Phenethylphosphonyl)-Phe--Trp.Na, N-(Phenethylphosphonyl)-Phe-Trp.2Na]"
5,5.55,"CC(C)[C@H](NP(=O)(O)CCc1ccccc1)C(=O)N[C@@H](Cc1c[nH]c2ccccc12)C(=O)O [N-(Phenethylphosphonyl)-Val--Trp.2Na, N-(Phenethylphosphonyl)-Val-Trp.2Na]"
6,6.40,CC(C)C[C@H](NP(=O)(O)CCc1cccc2ccccc12)C(=O)N[C@@H](Cc1c[nH]c2ccccc12)C(=O)O [N-[2-(1-Naphthyl)ethylphosphonyl]-Leu-Trp.2Na]
7,7.00,CC(C)C[C@H](NP(=O)(O)CCc1ccc2ccccc2c1)C(=O)N[C@@H](Cc1c[nH]c2ccccc12)C(=O)O [N-[2-(2-Naphthyl)ethylphosphonyl]-Leu-Trp.2Na]

# Test system: membrane-bound endothelin-converting enzyme
# Assay: not given
# Settings: FEBS Lett., 272, 166-170 (1990); cited from earlier work
row,Molecule,inhibition of membrane-bound enzyme (in words)
1,CC(C)C[C@H](NP(=O)(O)O[C@@H]1O[C@@H](C)[C@H](O)[C@@H](O)[C@H]1O)C(=O)N[C@@H](Cc1c[nH]c2ccccc12)C(=O)O [Phosphoramidone],inhibited

# Biological target: T1, Endothelin-Converting Enzyme
# Assay: Inhibition effect of various protease inhibitors on endothelin-converting enzyme
# Format: biochemical, pig
# Settings: Concentration 100 μM; read-out: Inhibiting Ratio (%)
# Procedure: as §1
row,Molecule,inhibition at 100 µM
1,CC(C)C[C@H](NC(=O)[C@@H](NC(=O)N[C@@H](Cc1ccccc1)C(=O)O)[C@@H]1CCN=C(N)N1)C(=O)N[C@H](C=O)Cc1ccccc1 [Chymostatin],2%
2,CC(C)C[C@H](NC(=O)[C@H]1O[C@@H]1C(=O)O)C(=O)NCCCCN=C(N)N [Example E-64],9%
3,CC(=O)N[C@@H](CC(C)C)C(=O)N[C@@H](CC(C)C)C(=O)N[C@H](C=O)CCCNC(=N)N [Leupeptin],23%
4,CC(C)CC(=O)N[C@H](C(=O)N[C@H](C(=O)N[C@@H](CC(C)C)[C@@H](O)CC(=O)N[C@@H](C)C(=O)N[C@@H](CC(C)C)[C@@H](O)CC(=O)O)C(C)C)C(C)C [Pepstatin] (Isovaleryl-VV[Sta]A[Sta]-OH),20%
5,CC(C)C[C@H](NP(=O)(O)O[C@@H]1O[C@@H](C)[C@H](O)[C@@H](O)[C@H]1O)C(=O)N[C@@H](Cc1c[nH]c2ccccc12)C(=O)O [Phosphoramidone],70%

# Same assay, conditions: Concentration 1000 μM
row,Molecule,Inhibiting Ratio (%)
1,"O=S(=O)(F)Cc1ccccc1 [PMSF, phenylmethanesulfonyl fluoride]",32%

# Same assay, conditions: Concentration 1000 μM; read-out: Inhibiting Ratio (%)
row,inhibition at 1000 µM,Molecule
1,96%,O[C@H](CS)[C@H](O)CS (racemic) [Dithiothreitol]
2,92%,c1cnc2c(c1)ccc1cccnc12 [o-Phenanthroline]

# Same assay, conditions: read-out: Inhibiting Ratio (%)
row,Molecule,inhibition at 1000 µM
1,O=C(O)CN(CCN(CC(=O)O)CC(=O)O)CC(=O)O [Ethylenediaminetetraacetic acid],70%

# Biological target: T1, Endothelin-Converting Enzyme
# Assay: Kinetic coefficient (Lineweaver-Burk plot)
# Format: biochemical
# Settings: substrate pig big endothelin, read-out: Michaelis coefficient
# Procedure: The Michaelis coefficient of this enzyme to pig big endothelin was calculated to be about 5×10^-6 M from the Lineweaver-Burk plot.
row,Molecule,Km
1,"pig big endothelin: substrate; pig big endothelin I (1-39) (Peptide Institute Inc.) (CSCSSLMDKECVYFCHLDIIWVNTPEHIVPYGLGSPSRS; ends and bridges not checked; cysteine pairing not given here; UniProt P09558 53-91, looked up, fragment)",~5 µM
